Reference: US9266847B2, “Compounds, probes, and methods of synthesis and methods of imaging COX-2-associated diseases” (Vanderbilt University, priority 2012, dated 2016)

Molecular target: T1, ovine COX2 (Ovis aries, UniProt P79208)
T1 sequence (P79208 17-603): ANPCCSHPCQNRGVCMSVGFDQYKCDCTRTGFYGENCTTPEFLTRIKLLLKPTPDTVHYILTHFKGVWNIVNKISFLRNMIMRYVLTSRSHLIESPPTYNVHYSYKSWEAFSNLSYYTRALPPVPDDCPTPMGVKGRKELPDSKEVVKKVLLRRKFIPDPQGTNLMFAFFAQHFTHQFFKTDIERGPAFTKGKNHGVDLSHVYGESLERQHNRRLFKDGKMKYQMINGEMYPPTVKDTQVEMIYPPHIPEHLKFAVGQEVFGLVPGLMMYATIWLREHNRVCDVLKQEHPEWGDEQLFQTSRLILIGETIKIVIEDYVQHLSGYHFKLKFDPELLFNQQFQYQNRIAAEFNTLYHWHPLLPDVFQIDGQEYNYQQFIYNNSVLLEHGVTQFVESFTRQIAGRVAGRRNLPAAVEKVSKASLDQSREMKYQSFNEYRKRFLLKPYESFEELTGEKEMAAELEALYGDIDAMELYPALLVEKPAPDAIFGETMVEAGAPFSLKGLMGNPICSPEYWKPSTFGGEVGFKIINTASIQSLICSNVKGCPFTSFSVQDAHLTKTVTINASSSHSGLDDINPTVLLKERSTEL
Experiment: IC50 assay, Cayman colorimetric COX inhibitor screening assay kit
Conditions: FIG. 2, 10 duplicate concentrations
Procedure: Various concentrations of the ^19F-COX2 compound ranging from 0.1 μM to 0.3 nM were dispensed into designated wells within a 96-well microtiter plate at a final volume of 220 μL per well. Each well contained an assay buffer, heme, and ovine COX2 provided in Cayman's colorimetric COX inhibitor screening assay kit. […] Five minutes after incubation of all assay components at 25° C., an arachidonic acid substrate at a final concentration of 100 μM and the colorimetric co-substrate N,N,N′,N′-tetramethyl-p-phenylenediamine were added to each well. The plate was then incubated at 25° C. for an additional 5 min before reading the absorbance at 590 nm using a plate reader. Absorbance of the duplicate assay of each well was averaged and subtracted from the 100% initial activity sample, after which it was divided by the 100% initial activity sample and multiplied by 100 to arrive at the percentage of inhibition.

## Cc1csc(Cc2c3cccccc-3c(C(=O)c3ccc(F)cc3)c2C)n1 [^19F-COX2]
  Hill slope of the inhibition curve: −0.62
